Assay results: paper PMC2653597 (Journal of chromatography. A, 2008)

What was measured:
[1] = biological target: immobilized human recombinant butyrylcholinesterase (rBChE) (Homo sapiens, UniProt P06276); test: rBChE-IMER on-line carbamoylation/decarbamoylation kinetics; type: biochemical; details: immobilized enzyme, 30 °C, flow rate 1.0 mL/min
[2] = biological target: human recombinant BChE (rBChE) in solution (Homo sapiens, UniProt P06276); test: in solution stopped time assay for carbamoylation constants; type: biochemical; details: enzyme in solution, classical Ellman's assay
human recombinant BChE (rBChE) in solution, sequence (P06276 29-602): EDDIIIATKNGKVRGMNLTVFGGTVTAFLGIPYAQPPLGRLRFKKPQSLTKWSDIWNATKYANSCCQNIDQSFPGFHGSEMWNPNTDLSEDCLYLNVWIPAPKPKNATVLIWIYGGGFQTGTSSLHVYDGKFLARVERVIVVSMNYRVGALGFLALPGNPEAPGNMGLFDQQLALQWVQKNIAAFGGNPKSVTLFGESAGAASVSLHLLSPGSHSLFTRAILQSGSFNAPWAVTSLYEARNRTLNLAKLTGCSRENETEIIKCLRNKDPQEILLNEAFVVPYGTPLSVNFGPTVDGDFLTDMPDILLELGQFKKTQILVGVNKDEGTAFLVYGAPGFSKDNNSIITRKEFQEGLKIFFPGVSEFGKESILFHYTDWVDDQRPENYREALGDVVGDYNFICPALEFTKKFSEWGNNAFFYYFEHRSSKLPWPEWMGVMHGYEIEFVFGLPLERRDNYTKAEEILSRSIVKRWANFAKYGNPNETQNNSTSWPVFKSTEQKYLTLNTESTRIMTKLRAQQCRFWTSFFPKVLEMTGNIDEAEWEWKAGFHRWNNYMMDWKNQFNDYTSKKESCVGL

immobilized human recombinant butyrylcholinesterase (rBChE), sequence (P06276 29-602): as above

Row | Structure (SMILES) | carbamoylation constant k2, rBChE-IMER [1] [min⁻¹] | carbamoylation constant k2, rBChE in solution [2] [min⁻¹]
1 | CC(C)c1ccc(NC(=O)Oc2ccc3c(c2)[C@]2(C)CCN[C@@H]2N3)cc1 [(-)-Bisnorcymserine] | 0.081 ± 0.004 | 0.573 ± 0.068
2 | CN1CC[C@@]2(C)c3cc(OC(=O)Nc4ccccc4)ccc3N(C)[C@@H]12 [(-)-Phenserine, 3aS-(-)-phenylcarbamoyleseroline] | 0.486 ± 0.037 | 3.094 ± 0.536
3 | CC(C)Cc1ccc(NC(=O)Oc2ccc3c(c2)[C@]2(C)CCN[C@@H]2N3)cc1 [(-)-Isobutylbisnorcymserine] | 0.049 ± 0.002 | 0.634 ± 0.022
4 | CNC(=O)Oc1ccc2c(c1)[C@]1(C)CCN(C)[C@@H]1N2C [(-)-Physostigmine, (-)-physostigmine, reference compound] | 0.161 ± 0.025 | 0.479 ± 0.070
